Test results as given in US12421245B2, “Pharmaceutically acceptable acid salt of free base of GLP1 receptor agonist, and preparation method therefor” (Hangzhou Zhongmei Huadong Pharmaceutical Co., Ltd., priority 2020, dated 2025).
Structures can show the parent of a compound that is named as a salt.

Assays:
Format in all cases: physicochemical
[1] = Assessment of pH solubility of crystalline salts in buffers
Method: 1) Assessment of pH Solubility The solubility of crystal form B of hydrochloride, crystal form C of p-toluenesulfonate, crystal form C of sulfate, and crystal form C of hydrobromide under different pH conditions were determined and compared, and the results were shown in Table 8. All the crystalline salts had low solubility in buffers of pH 3.0 and 5.0.

[2] = Assessment of solid stability (XRPD and HPLC after storage); conditions: for Change of crystal form, yes/no: XRPD after 40° C./100% RH/7 d; for HPLC (area %) 40° C./100% RH/7 d: after 40° C./100% RH for 1 week; for HPLC (area %) Initiation: initial, before storage; for Stability relative to OAD2 dihydrochloride (in words): summary statement
Method: The stability of crystal form B of hydrochloride, crystal form C of sulfate, crystal form C of p-toluenesulfonate and compound I was compared. After placement under a 40° C./100% RH condition for 1 week, physical and chemical stability was assessed by means of XRPD and HPLC, respectively, and the results were shown in Table 10.

[3] = Hygroscopicity, dynamic moisture adsorption (DVS) test; conditions: for Moisture adsorption rate: DVS, 25° C., 80% RH; for Change of crystal form, yes/no: before and after the DVS test
Method: 5. Dynamic moisture adsorption (DVS):
Dynamic moisture adsorption (DVS) curves were collected on DVS Intrinsic of Surface Measurement Systems (SMS). The relative humidity at 25° C. was corrected with the deliquescent points of LiCl, Mg (NO3) 2 and KCl.
Five crystalline salts were subject to DVS test (25° C., 80% RH).

| Compound | Solubility ([1]; pH 1.0) [µg/mL] | Solubility ([1]; pH 2.0) [µg/mL] | Solubility ([1]; pH 3.0) [µg/mL] | Solubility ([1]; pH 5.0) [µg/mL] | Solubility ([1]; pH 7.0) [µg/mL] | Change of crystal form, yes/no [2] | HPLC (area %) 40° C./100% RH/7 d [2] [area %] | HPLC (area %) Initiation [2] [area %] | Moisture adsorption rate [3] [%] | Change of crystal form, yes/no [3] | Moisture adsorption rate ([3]; dihydrochloride) [%] | Solid stability (in words) ([2]; 40° C./100% RH, 1 week) | Stability relative to OAD2 dihydrochloride (in words) [2] | Solubility compared with other crystalline salts (in words) ([1]; buffer of pH 1.0) |
| --- | --- | --- | --- | --- | --- | --- | --- | --- | --- | --- | --- | --- | --- | --- |
| CC[C@@H](c1ccccc1)N1Cc2cc3c(cc2C[C@H]1C(=O)N[C@@H](Cc1ccc(-c2ccnc(C)c2C)cc1)C(=O)O)OC[C@H](c1ccc(OCc2ccc(Cl)c(Cl)c2)cc1)O3 [OAD2 dihydrochloride, (S)-2-(3S,8S)-3-(4-(3,4-dichlorobenzyloxy)phenyl-7-((S)-1-phenylpropyl)-2,3,6,7,8,9-hexahydro-[1,4]-dioxino[2,3-g]isoquinolin-8-ylformylamino)-3-(4-(2,3-dimethylpyridin-4-yl)phenyl)propionic acid dihydrochloride, reference compound] |  |  |  |  |  |  |  |  |  |  | 8.3 |  |  |  |
| CC[C@@H](c1ccccc1)N1Cc2cc3c(cc2C[C@H]1C(=O)N[C@@H](Cc1ccc(-c2ccnc(C)c2C)cc1)C(=O)O)OC[C@H](c1ccc(OCc2ccc(Cl)c(Cl)c2)cc1)O3 [Crystal form C of p-toluenesulfonate, (S)-2-(3S,8S)-3-(4-(3,4-dichlorobenzyloxy)phenyl-7-((S)-1-phenylpropyl)-2,3,6,7,8,9-hexahydro-[1,4]-dioxino[2,3-g]isoquinolin-8-ylformylamino)-3-(4-(2,3-dimethylpyridin-4-yl)phenyl)propionic acid] | 1423 | 118 | 1 | 1 | 93 | No | 98.87 | 98.85 | 0.6 | No |  | the best stability | superior stability relative to OAD2 dihydrochloride | significantly higher solubility than other crystalline salts |
| CC[C@@H](c1ccccc1)N1Cc2cc3c(cc2C[C@H]1C(=O)N[C@@H](Cc1ccc(-c2ccnc(C)c2C)cc1)C(=O)O)OC[C@H](c1ccc(OCc2ccc(Cl)c(Cl)c2)cc1)O3 [Crystal form C of hydrobromide, (S)-2-(3S,8S)-3-(4-(3,4-dichlorobenzyloxy)phenyl-7-((S)-1-phenylpropyl)-2,3,6,7,8,9-hexahydro-[1,4]-dioxino[2,3-g]isoquinolin-8-ylformylamino)-3-(4-(2,3-dimethylpyridin-4-yl)phenyl)propionic acid] | 496 | 16 | 1 | 4 | 39 |  |  |  | 1.4 | No |  |  |  |  |

The next lines start with results.

| Solubility ([1]; pH 1.0) [µg/mL] | Solubility ([1]; pH 2.0) [µg/mL] | Solubility ([1]; pH 3.0) [µg/mL] | Solubility ([1]; pH 5.0) [µg/mL] | Solubility ([1]; pH 7.0) [µg/mL] | Change of crystal form, yes/no [2] | HPLC (area %) 40° C./100% RH/7 d [2] [area %] | HPLC (area %) Initiation [2] [area %] | Moisture adsorption rate [3] [%] | Change of crystal form, yes/no [3] | Moisture adsorption rate ([3]; dihydrochloride) [%] | Solid stability (in words) ([2]; 40° C./100% RH, 1 week) | Compound | Stability relative to OAD2 dihydrochloride (in words) [2] | Solubility compared with other crystalline salts (in words) ([1]; buffer of pH 1.0) |
| --- | --- | --- | --- | --- | --- | --- | --- | --- | --- | --- | --- | --- | --- | --- |
| 381 | 17 | 2 | 1 | 109 | No | 98.18 | 98.37 | 0.8 | No |  |  | CC[C@@H](c1ccccc1)N1Cc2cc3c(cc2C[C@H]1C(=O)N[C@@H](Cc1ccc(-c2ccnc(C)c2C)cc1)C(=O)O)OC[C@H](c1ccc(OCc2ccc(Cl)c(Cl)c2)cc1)O3 [Crystal form B of hydrochloride, (S)-2-(3S,8S)-3-(4-(3,4-dichlorobenzyloxy)phenyl-7-((S)-1-phenylpropyl)-2,3,6,7,8,9-hexahydro-[1,4]-dioxino[2,3-g]isoquinolin-8-ylformylamino)-3-(4-(2,3-dimethylpyridin-4-yl)phenyl)propionic acid] | superior stability relative to OAD2 dihydrochloride |  |
| 811 | 74 | 1 | 1 | 96 | No | 98.78 | 98.85 | 3.2 | No |  |  | CC[C@@H](c1ccccc1)N1Cc2cc3c(cc2C[C@H]1C(=O)N[C@@H](Cc1ccc(-c2ccnc(C)c2C)cc1)C(=O)O)OC[C@H](c1ccc(OCc2ccc(Cl)c(Cl)c2)cc1)O3 [Crystal form C of sulfate, (S)-2-(3S,8S)-3-(4-(3,4-dichlorobenzyloxy)phenyl-7-((S)-1-phenylpropyl)-2,3,6,7,8,9-hexahydro-[1,4]-dioxino[2,3-g]isoquinolin-8-ylformylamino)-3-(4-(2,3-dimethylpyridin-4-yl)phenyl)propionic acid] | superior stability relative to OAD2 dihydrochloride |  |
